Assay results: PubChem BioAssay (NCI)
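96-well plates; 48 h exposure; 5 concentrations. Endpoints by linear interpolation between flanking doses. Not reached: highest tested concentration assigned. GI50 marks 50% less growth. TGI is the concentration that stops growth completely.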

How the values were obtained:
Experiment in all cases: NCI anticancer screen, dose series, 48 h
OVCAR-5 ovarian = system: OVCAR-5 ovarian
MDA-MB-231 breast = system: MDA-MB-231 breast
SK-MEL-5 melanoma = system: SK-MEL-5 melanoma
SN12C renal = system: SN12C renal
SF-295 CNS = system: SF-295 CNS
SK-MEL-2 melanoma = system: SK-MEL-2 melanoma
HOP-92 NSCLC = system: HOP-92 NSCLC
SK-MEL-28 melanoma = system: SK-MEL-28 melanoma
MALME-3M melanoma = system: MALME-3M melanoma
DU-145 prostate = system: DU-145 prostate
IGROV1 ovarian = system: IGROV1 ovarian
PC-3 prostate = system: PC-3 prostate
MDA-MB-435 = system: MDA-MB-435
SW-620 colon = system: SW-620 colon
NCI-H226 lung = system: NCI-H226 lung
CAKI-1 renal = system: CAKI-1 renal
UO-31 renal = system: UO-31 renal
HCT-116 colon = system: HCT-116 colon
TK-10 renal = system: TK-10 renal
NCI-H460 lung = system: NCI-H460 lung
KM12 colon = system: KM12 colon
OVCAR-8 ovarian = system: OVCAR-8 ovarian
CCRF-CEM leukemia = system: CCRF-CEM leukemia
OVCAR-4 ovarian = system: OVCAR-4 ovarian
LOX IMVI melanoma = system: LOX IMVI melanoma
SF-268 CNS = system: SF-268 CNS
UACC-257 melanoma = system: UACC-257 melanoma
A498 renal = system: A498 renal
HCC-2998 colon = system: HCC-2998 colon
BT-549 breast = system: BT-549 breast
SK-OV-3 ovarian = system: SK-OV-3 ovarian
NCI/ADR-RES ovarian = system: NCI/ADR-RES ovarian
SNB-75 CNS = system: SNB-75 CNS
EKVX NSCLC = system: EKVX NSCLC
UACC-62 melanoma = system: UACC-62 melanoma
NCI-H23 lung = system: NCI-H23 lung
SR leukemia = system: SR leukemia
MOLT-4 leukemia = system: MOLT-4 leukemia
A549 NSCLC = system: A549 NSCLC
M14 melanoma = system: M14 melanoma
HL-60(TB) leukemia = system: HL-60(TB) leukemia
T-47D breast = system: T-47D breast
HCT-15 colon = system: HCT-15 colon
HT29 colon = system: HT29 colon
RXF 393 renal = system: RXF 393 renal
HS 578T breast = system: HS 578T breast
ACHN renal = system: ACHN renal
SF-539 CNS = system: SF-539 CNS
OVCAR-3 ovarian = system: OVCAR-3 ovarian
SNB-19 CNS = system: SNB-19 CNS
MCF7 breast = system: MCF7 breast
K-562 leukemia = system: K-562 leukemia

COc1cc(-c2ccc(-c3ccc(C(=N)N)cc3)s2)cc(OC)c1OC
GI50 (OVCAR-5 ovarian): 3.46 µM | TGI (OVCAR-5 ovarian): 13.8 µM | GI50 (MDA-MB-231 breast): 1.62 µM | TGI (MDA-MB-231 breast): 3.26 µM | GI50 (SK-MEL-5 melanoma): 1.72 µM | TGI (SK-MEL-5 melanoma): 3.1 µM | GI50 (SN12C renal): 4.5 µM | TGI (SN12C renal): 18.8 µM | GI50 (SF-295 CNS): 1.77 µM | TGI (SF-295 CNS): 3.45 µM | GI50 (SK-MEL-2 melanoma): 1.91 µM | TGI (SK-MEL-2 melanoma): 3.73 µM | GI50 (HOP-92 NSCLC): 1.29 µM | TGI (HOP-92 NSCLC): 3.72 µM | GI50 (SK-MEL-28 melanoma): 1.6 µM | TGI (SK-MEL-28 melanoma): 3.05 µM | GI50 (MALME-3M melanoma): 1.46 µM | TGI (MALME-3M melanoma): 2.9 µM | GI50 (DU-145 prostate): 2.41 µM | TGI (DU-145 prostate): 6.09 µM | GI50 (IGROV1 ovarian): 5 µM | TGI (IGROV1 ovarian): 18.5 µM | GI50 (PC-3 prostate): 2.94 µM | TGI (PC-3 prostate): 11.2 µM | GI50 (MDA-MB-435): 1.57 µM | TGI (MDA-MB-435): 3.01 µM | GI50 (SW-620 colon): 1.73 µM | TGI (SW-620 colon): 3.31 µM | GI50 (NCI-H226 lung): 2.16 µM | TGI (NCI-H226 lung): 6.58 µM | GI50 (CAKI-1 renal): 1.72 µM | TGI (CAKI-1 renal): 3.22 µM | GI50 (UO-31 renal): 3.37 µM | TGI (UO-31 renal): 14.8 µM | GI50 (HCT-116 colon): 1.56 µM | TGI (HCT-116 colon): 3.19 µM | GI50 (TK-10 renal): 2.05 µM | TGI (TK-10 renal): 4.02 µM | GI50 (NCI-H460 lung): 1.83 µM | TGI (NCI-H460 lung): 3.47 µM | GI50 (KM12 colon): 1.67 µM | TGI (KM12 colon): 3.35 µM | GI50 (OVCAR-8 ovarian): 2.34 µM | TGI (OVCAR-8 ovarian): 5.87 µM | GI50 (CCRF-CEM leukemia): 2.93 µM | TGI (CCRF-CEM leukemia): 11.7 µM | GI50 (OVCAR-4 ovarian): 1.76 µM | TGI (OVCAR-4 ovarian): 4.03 µM | GI50 (LOX IMVI melanoma): 1.72 µM | TGI (LOX IMVI melanoma): 3.1 µM | GI50 (SF-268 CNS): 2.41 µM | TGI (SF-268 CNS): 7.36 µM | GI50 (UACC-257 melanoma): 2.02 µM | TGI (UACC-257 melanoma): 4.37 µM | GI50 (A498 renal): 0.215 µM | TGI (A498 renal): 3.96 µM | GI50 (HCC-2998 colon): 1.79 µM | TGI (HCC-2998 colon): 3.24 µM | GI50 (BT-549 breast): 2.69 µM | TGI (BT-549 breast): 9.4 µM | GI50 (SK-OV-3 ovarian): 2.45 µM | TGI (SK-OV-3 ovarian): 6.65 µM | GI50 (NCI/ADR-RES ovarian): 7.88 µM | TGI (NCI/ADR-RES ovarian): 23.6 µM | GI50 (SNB-75 CNS): 1.6 µM | TGI (SNB-75 CNS): 6.19 µM | GI50 (EKVX NSCLC): 4.69 µM | TGI (EKVX NSCLC): 19.7 µM | GI50 (UACC-62 melanoma): 2.77 µM | TGI (UACC-62 melanoma): 10.3 µM | GI50 (NCI-H23 lung): 2.25 µM | TGI (NCI-H23 lung): 5.4 µM | GI50 (SR leukemia): 2.08 µM | TGI (SR leukemia): 5.43 µM | GI50 (MOLT-4 leukemia): 2.2 µM | TGI (MOLT-4 leukemia): 6.15 µM | GI50 (A549 NSCLC): 3.63 µM | TGI (A549 NSCLC): 14.7 µM | GI50 (M14 melanoma): 1.62 µM | TGI (M14 melanoma): 3.36 µM | GI50 (HL-60(TB) leukemia): 2.13 µM | TGI (HL-60(TB) leukemia): 4.75 µM | GI50 (T-47D breast): 1.9 µM | TGI (T-47D breast): 4.92 µM | GI50 (HCT-15 colon): 2.25 µM | TGI (HCT-15 colon): 5.29 µM | GI50 (HT29 colon): 1.5 µM | TGI (HT29 colon): 5.56 µM | GI50 (RXF 393 renal): 2.1 µM | TGI (RXF 393 renal): 4.08 µM | GI50 (HS 578T breast): 1.75 µM | TGI (HS 578T breast): 4.16 µM | GI50 (ACHN renal): 1.73 µM | TGI (ACHN renal): 3.19 µM | GI50 (SF-539 CNS): 1.62 µM | TGI (SF-539 CNS): 3.03 µM | GI50 (OVCAR-3 ovarian): 2.01 µM | TGI (OVCAR-3 ovarian): 3.87 µM | GI50 (SNB-19 CNS): 2.36 µM | TGI (SNB-19 CNS): 6.56 µM | GI50 (MCF7 breast): 1.65 µM | TGI (MCF7 breast): 4.36 µM | GI50 (K-562 leukemia): 2.63 µM | TGI (K-562 leukemia): 10.2 µM
